Columns and labels:
soybean (cv. Nortman) = assay: Experiment 18: LCO foliar application on legume (soybean); format: in vivo
Experimental: A short heat-unit variety of soybean (cv. Nortman, HU 2425) was planted at density of plants on the field of approx. 300 plants per plot (500,000 plants/ha). The soybean plants were first treated with LCO at their blooming stage 24 days after planting. The treatment amounts of LCO (detailed above) were diluted with distilled water to give a 2-litre solution sprayed over 4 plots of the treatment. The second application was sprayed at the podding stage 49 days after planting. As before, the LCO was diluted with distilled water to 2-litre solution per 4 plots of the treatment. The plants receiving a single application were sprayed with LCO for the first time, whereas the plants receiving a double application were sprayed for the second time. A CO2 pressure sprayer was employed for this trial. The amount of fluid dispensed by the sprayer was controlled by the nozzle size. It was calibrated with water prior to spraying with LCO. Biomass was examined 58 days after planting by digging out by hand 5 plants per plot. The final yield was obtained by harvesting by combine the intact area (2-meter long to the end) 101 days after planting. The data were analyzed with the SAS program.

greenhouse tomatoes = assay: Experiment 11: LCO foliar application in greenhouse tomatoes; format: in vivo, tomato; conditions: 28 days after transplant
Experimental: Tomatoes were seeded and transplanted into 10″ pots 30 days later in the greenhouse. Plants were sprayed with 5 ml (50 ng) LCO solution per plant 10 days after transplant and 14 days after transplant (50 ng×2). Flowering data was collected 28 days after transplant. The same plants as FIG. 2-1 were sampled for fruit data 28 days after transplant.

Cobra tomatoes = assay: Trial 1: LCO dose and delivery medium on greenhouse tomato (Cobra); format: in vivo; conditions: for more flowers than other treatments and control: 50 ng LCO
Experimental: Cobra (a hybrid cultivar) was used to examine optimum application dose between 10 and 100 ng/plant at one or two applications and the LCO delivery medium. The levels chosen were the extremes of beneficial doses determined previously in tomato field trials. The delivery media tested were LCO in water, Apex and centrifuged Apex. The first application of LCO was made 10 days after transplanting. When applied a second time it was 2 weeks after the first application. The following parameters were tested: leaf number, plant height, number of cluster, number of flower, number of fruit. Observations were made continuously for approximately a two-month period, at one-week intervals until plant growth was limited by pot bound roots. The cobra seedlings were transplanted 32 days after seeding, the first application was 10 days thereafter, the second application was 14 days after the first application. The fruits were harvested 6 weeks after the second application.

Ridgetown canning tomato = assay: Experiment 10: effect of LCO on Ridgetown canning tomato; format: in vivo; conditions: for Fruit number (on 24 plants) / Fruit number Increase vs. CK (%) / Fruit weight (kg/24 plants) / Fruit weight Increase vs. CK (%): first harvesting
Experimental: The experiment was conducted at Ridgetown College, University of Guelph, Ridgetown, Ontario. Tomatoes were transplanted in single twin rows, 7 m in length spaced 1.65 m apart. Treatments of LCO were applied three times, two weeks before flowering (28 days after transplant), two weeks after flowering (52 days after transplant) and six weeks after flowering (69 days after transplant). Spray applications were applied using a specialized, small plot research CO2 sprayer with a two-nozzled, hand-held boom applying 200 L/ha of spray. Rates were determined based on 38 tomato plants per plot, replicated 4 times, equaling 152 plants per treatment. Early fruit was harvested for yield evaluation on Aug. 20, 2003.

hot pepper = assay: Experiment 17: effect of LCO on hot pepper flowering and fruiting; format: in vivo; conditions: for increased early flowers over control: at 5 weeks; for increased number of early fruits over control: in 5 weeks
Experimental: 30-day old seedlings were transplanted into 5″ pots and 20 days later (20 DAT) plants received the first LCO spray at 2 ml/plant (50 ng/plant). The 2nd spray was conducted 3 weeks (41 DAT) after the first. Data was collected 5 weeks (55 DAT) after the first LCO application. […]

[1] = applied 2 weeks before and after flowering

Substance: Lipo-chitooligosaccharides [LCO]
- Biomass (g/5-plant) (soybean (cv. Nortman); LCO 1 ng, applied once): 49.46 AB g/5-plant
- Yield (kg/ha) (soybean (cv. Nortman); LCO 1 ng, applied once): 2563.96 AB kg/ha
- Biomass (g/5-plant) (soybean (cv. Nortman); LCO 1 ng, applied twice): 55.10 AB g/5-plant
- Yield (kg/ha) (soybean (cv. Nortman); LCO 1 ng, applied twice): 2673.54 AB kg/ha
- Biomass (g/5-plant) (soybean (cv. Nortman); LCO 10 ng, applied once): 46.28 AB g/5-plant
- Yield (kg/ha) (soybean (cv. Nortman); LCO 10 ng, applied once): 2515.33 B kg/ha
- Biomass (g/5-plant) (soybean (cv. Nortman); LCO 10 ng, applied twice): 60.11 A g/5-plant
- Yield (kg/ha) (soybean (cv. Nortman); LCO 10 ng, applied twice): 2385.75 B kg/ha
- Biomass (g/5-plant) (soybean (cv. Nortman); LCO 100 ng, applied once): 46.87 AB g/5-plant
- Yield (kg/ha) (soybean (cv. Nortman); LCO 100 ng, applied once): 2635.00 AB kg/ha
- Biomass (g/5-plant) (soybean (cv. Nortman); LCO 100 ng, applied twice): 55.09 AB g/5-plant
- Yield (kg/ha) (soybean (cv. Nortman); LCO 100 ng, applied twice): 2974.17 A kg/ha
- Biomass (g/5-plant) (soybean (cv. Nortman); LCO 1000 ng, applied once): 47.99 AB g/5-plant
- Yield (kg/ha) (soybean (cv. Nortman); LCO 1000 ng, applied once): 2452.71 B kg/ha
- Biomass (g/5-plant) (soybean (cv. Nortman); LCO 1000 ng, applied twice): 47.81 AB g/5-plant
- Yield (kg/ha) (soybean (cv. Nortman); LCO 1000 ng, applied twice): 2620.42 AB kg/ha
- tomato early flowering (greenhouse tomatoes; 50 ng/plant single or double): improved tomato early flowering
- increased fruit set (greenhouse tomatoes; single 50 ng LCO application): approx. 1 fruit/plant
- Number of Flowers/Plant (Cobra tomatoes; 10 ng, Dec. 30): 1.2
- Number of Flowers/Plant (Cobra tomatoes; 10 ng, Jan. 07): 2.4
- Number of Fruit/Plant (Cobra tomatoes; 10 ng, Jan. 07): 0.3
- Number of Flowers/Plant (Cobra tomatoes; 10 ng, Jan. 15): 4.4
- Number of Fruit/Plant (Cobra tomatoes; 10 ng, Jan. 15): 1.8
- Number of Flowers/Plant (Cobra tomatoes; 10 ng, Jan. 22): 5.6
- Number of Fruit/Plant (Cobra tomatoes; 10 ng, Jan. 22): 2.1
- Number of Flowers/Plant (Cobra tomatoes; 10 ng, Jan. 31): 8.1
- Number of Fruit/Plant (Cobra tomatoes; 10 ng, Jan. 31): 2.5
- Fruit Weight (Cobra tomatoes; 10 ng, Mean of bases): 87.09 Gram/Plant
- Fruit Weight (Cobra tomatoes; 10 ng, base Bacterial Camer): 97.97 Gram/Plant
- Fruit Weight (Cobra tomatoes; 10 ng, base Bacterial Supernatent): 67.2 Gram/Plant
- Fruit Weight (Cobra tomatoes; 10 ng, base Water): 96.11 Gram/Plant
- early yield (fruit weight) vs untreated control (Cobra tomatoes; 50 ng LCO treatment): statistically significant effect
- more flowers than other treatments and control (Cobra tomatoes; January 15): 21%
- more flowers than other treatments and control (Cobra tomatoes; January 22): 14%
- Number of Flowers/Plant (Cobra tomatoes; 50 ng, Dec. 30): 0.97
- Number of Flowers/Plant (Cobra tomatoes; 50 ng, Jan. 07): 2.5
- Number of Fruit/Plant (Cobra tomatoes; 50 ng, Jan. 07): 0.33
- Number of Flowers/Plant (Cobra tomatoes; 50 ng, Jan. 15): 5.2
- Number of Fruit/Plant (Cobra tomatoes; 50 ng, Jan. 15): 2.2
- Number of Flowers/Plant (Cobra tomatoes; 50 ng, Jan. 22): 6.7
- Number of Fruit/Plant (Cobra tomatoes; 50 ng, Jan. 22): 2.5
- Number of Flowers/Plant (Cobra tomatoes; 50 ng, Jan. 31): 8.7
- Number of Fruit/Plant (Cobra tomatoes; 50 ng, Jan. 31): 2.9
- Fruit Weight (Cobra tomatoes; 50 ng, Mean of bases): 104.26 Gram/Plant
- Fruit Weight (Cobra tomatoes; 50 ng, base Bacterial Camer): 103.32 Gram/Plant
- Fruit Weight (Cobra tomatoes; 50 ng, base Bacterial Supernatent): 100.48 Gram/Plant
- Fruit Weight (Cobra tomatoes; 50 ng, base Water): 108.99 Gram/Plant
- Number of Flowers/Plant (Cobra tomatoes; 100 ng, Dec. 30): 0.9
- Number of Flowers/Plant (Cobra tomatoes; 100 ng, Jan. 07): 2.2
- Number of Fruit/Plant (Cobra tomatoes; 100 ng, Jan. 07): 0.37
- Number of Flowers/Plant (Cobra tomatoes; 100 ng, Jan. 15): 4.4
- Number of Fruit/Plant (Cobra tomatoes; 100 ng, Jan. 15): 1.7
- Number of Flowers/Plant (Cobra tomatoes; 100 ng, Jan. 22): 6.2
- Number of Fruit/Plant (Cobra tomatoes; 100 ng, Jan. 22): 2.1
- Number of Flowers/Plant (Cobra tomatoes; 100 ng, Jan. 31): 8.7
- Number of Fruit/Plant (Cobra tomatoes; 100 ng, Jan. 31): 2.6
- Fruit Weight (Cobra tomatoes; 100 ng, Mean of bases): 87.99 Gram/Plant
- Fruit Weight (Cobra tomatoes; 100 ng, base Bacterial Camer): 66.26 Gram/Plant
- Fruit Weight (Cobra tomatoes; 100 ng, base Bacterial Supernatent): 109.13 Gram/Plant
- Fruit Weight (Cobra tomatoes; 100 ng, base Water): 88.57 Gram/Plant
- advance of flowering over control (Cobra tomatoes; Trial 1, FIG. 5, Table 3): 4 to 5 days
- advance in early fruiting over control (Cobra tomatoes; Trial 1, second graph): 8 to 9 days
- optimal application (early fruit set) (Cobra tomatoes; three to four weeks after application): approximately 50 ng per plant
- increased fruit number (Ridgetown canning tomato; [1]): up to 20%
- increased fruit weight (Ridgetown canning tomato; [1]): up to 16%
- Fruit number (on 24 plants) (Ridgetown canning tomato; treatment 0-50-0): 209AB
- Fruit number Increase vs. CK (%) (Ridgetown canning tomato; treatment 0-50-0): 14.2%
- Fruit weight (kg/24 plants) (Ridgetown canning tomato; treatment 0-50-0): 12.598 kg/24 plants
- Fruit weight Increase vs. CK (%) (Ridgetown canning tomato; treatment 0-50-0): 16.2%
- Fruit number (on 24 plants) (Ridgetown canning tomato; treatment 0-50-75): 191AB
- Fruit number Increase vs. CK (%) (Ridgetown canning tomato; treatment 0-50-75): 4.4%
- Fruit weight (kg/24 plants) (Ridgetown canning tomato; treatment 0-50-75): 11.352 kg/24 plants
- Fruit weight Increase vs. CK (%) (Ridgetown canning tomato; treatment 0-50-75): 4.7%
- Fruit number (on 24 plants) (Ridgetown canning tomato; treatment 50-0-0): 206AB
- Fruit number Increase vs. CK (%) (Ridgetown canning tomato; treatment 50-0-0): 12.6%
- Fruit weight (kg/24 plants) (Ridgetown canning tomato; treatment 50-0-0): 11.916 kg/24 plants
- Fruit weight Increase vs. CK (%) (Ridgetown canning tomato; treatment 50-0-0): 9.9%
- Fruit number (on 24 plants) (Ridgetown canning tomato; treatment 50-50-0): 219A
- Fruit number Increase vs. CK (%) (Ridgetown canning tomato; treatment 50-50-0): 19.7%
- Fruit weight (kg/24 plants) (Ridgetown canning tomato; treatment 50-50-0): 12.567 kg/24 plants
- Fruit weight Increase vs. CK (%) (Ridgetown canning tomato; treatment 50-50-0): 15.9%
- Fruit number (on 24 plants) (Ridgetown canning tomato; treatment 50-75-0): 199AB
- Fruit number Increase vs. CK (%) (Ridgetown canning tomato; treatment 50-75-0): 8.7%
- Fruit weight (kg/24 plants) (Ridgetown canning tomato; treatment 50-75-0): 11.421 kg/24 plants
- Fruit weight Increase vs. CK (%) (Ridgetown canning tomato; treatment 50-75-0): 5.3%
- increased early flowers over control (hot pepper; double applications): ≤ 40%
- increased number of early fruits over control (hot pepper; double applications): ≤ 284%
- increased early flowers over control (hot pepper; single application): up to 5%
- increased number of early fruits over control (hot pepper; single application): up to 159%

From patent publication US20130244879A1, “USE OF LIPO-CHITOOLIGOSACCHARIDES TO INITIATE EARLY FLOWERING AND FRUIT DEVELOPMENT IN PLANTS AND RELATED METHODS AND COMPOSITIONS” (NOVOZYMES BIOLOGICALS HOLDING A/S, priority 2003, published 2013)
